Results taken from patent publication US8044236B2, “Carboxilic acid derivatives” (Institute of Medicinal Molecular Design, Inc., priority 2006, dated 2011).

Target: recombinant human PAI-1 (Homo sapiens, UniProt P05121)
Experiment: Test Example 1: human PAI-1 inhibitory activity (tPA fluorogenic substrate, pH7.5 Tris buffer)
Assay type: biochemical
Set-up: purchased Molecular Innovations, Inc
Settings: Tris buffer pH7.5
Protocol: In a 96-well multiplate (black), 1.5 μl of DMSO solution of the present application compound prepared to achieve 80-fold the test concentration (=the final concentration when fluorogenic substrate is added) was diluted with 52.5 μl of pH7.5 Tris buffer. […] Furthermore, 30 μl of 800 IU/ml two-chain tPA (Activity Standard; American diagnostics, inc.) prepared by Tris buffer was added, and the mixed solution was incubated for 15 minutes at room temperature. To this, 30 μl of 400 μM fluorogenic substrate (Pyr-Gly-Arg-MCA; Peptide Institute, Inc.) for tPA prepared by Tris buffer was added and reacted for 30 minutes at room temperature.
<Composition of pH7.5 Tris Buffer)

Chain of recombinant human PAI-1 (P05121 24-402): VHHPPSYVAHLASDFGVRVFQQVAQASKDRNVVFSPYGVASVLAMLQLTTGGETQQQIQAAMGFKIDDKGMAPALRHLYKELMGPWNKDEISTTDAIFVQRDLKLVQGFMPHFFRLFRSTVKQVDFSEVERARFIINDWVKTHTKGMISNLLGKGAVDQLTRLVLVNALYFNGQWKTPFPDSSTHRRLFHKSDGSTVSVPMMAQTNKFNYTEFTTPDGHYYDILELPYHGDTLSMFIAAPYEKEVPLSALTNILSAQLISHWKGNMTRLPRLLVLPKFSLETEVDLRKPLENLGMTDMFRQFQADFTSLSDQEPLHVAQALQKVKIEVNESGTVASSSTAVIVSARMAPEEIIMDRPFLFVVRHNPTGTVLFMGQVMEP

Inhibition Rate of Human PAI-1 Activity (%) (compound 5 μM) | Inhibition Rate of Human PAI-1 Activity (%) (compound 10 μM) | Inhibition Rate of Human PAI-1 Activity (%) (compound 25 μM) | SMILES
5% | 29% | 92% | O=C(O)CCc1cc(-c2ccc(OC(F)(F)F)cc2)ccc1OCc1ccc(Cl)cc1Cl [Compound 32, 3-[4-(2,4-dichlorobenzyloxy)-4′-(trifluoromethoxy)biphenyl-3-yl]propanoic acid]
 |  | >99% | CCCCc1ccc(COc2ccc(-c3ccc(OC(F)(F)F)cc3)cc2CCC(=O)O)cc1 [Compound 35, 3-[4-(4-butylbenzyloxy)-4′-(trifluoromethoxy)biphenyl-3-yl]propanoic acid]
21% | 49% | 89% | CC(C)(C)c1ccc(COc2ccc(-c3ccccc3)cc2/C=C/C(=O)O)cc1 [Compound 36, (E)-3-{4-[4-(tert-butyl)benzyloxy]biphenyl-3-yl}propenoic acid]
22% | 47% | 97% | CC(C)(C)c1ccc(COc2ccc(-c3ccccc3)cc2CCC(=O)O)cc1 [Compound 37, 3-{4-[4-(tert-butyl)benzyloxy]biphenyl-3-yl}propanoic acid]
23% | 53% | 96% | CC(C)(C)c1ccc(COc2ccc(-c3ccc(F)cc3)cc2/C=C/C(=O)O)cc1 [Compound 38, (E)-3-{4-[4-(tert-butyl)benzyloxy]-4′-fluorobiphenyl-3-yl}propenoic acid]
24% | 53% | 99% | CC(C)(C)c1ccc(COc2ccc(-c3ccc(F)cc3)cc2CCC(=O)O)cc1 [Compound 39, 3-{4-[4-(tert-butyl)benzyloxy]-4′-fluorobiphenyl-3-yl}propanoic acid]
28% | 57% | 95% | CC(C)(C)c1ccc(COc2ccc(-c3ccc(C(F)(F)F)cc3)cc2/C=C/C(=O)O)cc1 [Compound 40, (E)-3-{4-[4-(tert-butyl)benzyloxy]-4′-(trifluoromethyl)biphenyl-3-yl}propenoic acid]
23% | 60% | 99% | CC(C)(C)c1ccc(COc2ccc(-c3ccc(C(F)(F)F)cc3)cc2CCC(=O)O)cc1 [Compound 41, 3-{4-[4-(tert-butyl)benzyloxy]-4′-(trifluoromethyl)biphenyl-3-yl}propanoic acid]
23% | 47% | 84% | COc1ccc(-c2ccc(OCc3ccc(C(C)(C)C)cc3)c(/C=C/C(=O)O)c2)cc1 [Compound 42, (E)-3-{4-[4-(tert-butyl)benzyloxy]-4′-methoxybiphenyl-3-yl}propenoic acid]
14% | 34% | 93% | COc1ccc(-c2ccc(OCc3ccc(C(C)(C)C)cc3)c(CCC(=O)O)c2)cc1 [Compound 43, 3-{4-[4-(tert-butyl)benzyloxy]-4′-methoxybiphenyl-3-yl}propanoic acid]
25% | 56% | 94% | CC(C)(C)c1ccc(COc2ccc(-c3ccc(C(C)(C)C)cc3)cc2/C=C/C(=O)O)cc1 [Compound 44, (E)-3-{4′-(tert-butyl)-4-[4-(tert-butyl)benzyloxy]biphenyl-3-yl}propenoic acid]
22% | 66% | >99% | CC(C)(C)c1ccc(COc2ccc(-c3ccc(C(C)(C)C)cc3)cc2CCC(=O)O)cc1 [Compound 45, 3-{4′-(tert-butyl)-4-[4-(tert-butyl)benzyloxy]biphenyl-3-yl}propanoic acid]
29% | 66% | 94% | CCCCc1ccc(-c2ccc(OCc3ccc(C(C)(C)C)cc3)c(CCC(=O)O)c2)cc1 [Compound 48, 3-{4′-butyl-4-[4-(tert-butyl)benzyloxy]biphenyl-3-yl}propanoic acid]
16% | 25% | 21% | CSc1ccc(-c2ccc(OCc3ccc(C(C)(C)C)cc3)c(/C=C/C(=O)O)c2)cc1 [Compound 49, (E)-3-{4-[4-(tert-butyl)benzyloxy]-4′-(methylsulfanyl)biphenyl-3-yl}propenoic acid]
22% | 47% | 91% | CC(C)(C)c1ccc(-c2ccc(OCc3ccccc3)c(/C=C/C(=O)O)c2)cc1 [Compound 52, (E)-3-[4-benzyloxy-4′-(tert-butyl)biphenyl-3-yl]propenoic acid]
20% | 50% | 93% | CC(C)(C)c1ccc(-c2ccc(OCc3ccccc3)c(CCC(=O)O)c2)cc1 [Compound 53, 3-[4-benzyloxy-4′-(tert-butyl)biphenyl-3-yl]propanoic acid]
32% | 69% | 94% | CC(C)(C)c1ccc(-c2ccc(OCc3ccc(OC(F)(F)F)cc3)c(/C=C/C(=O)O)c2)cc1 [Compound 56, (E)-3-{4′-(tert-butyl)-4-[4-(trifluoromethoxy)benzyloxy]biphenyl-3-yl}propenoic acid]
28% | 64% | 94% | CC(C)(C)c1ccc(-c2ccc(OCc3ccc(OC(F)(F)F)cc3)c(CCC(=O)O)c2)cc1 [Compound 57, 3-{4′-(tert-butyl)-4-[4-(trifluoromethoxy)benzyloxy]biphenyl-3-yl}propanoic acid]
19% | 32% | 74% | O=C(O)CCc1cc(-c2ccccc2)ccc1OCc1ccc(OC(F)(F)F)cc1 [Compound 58, 3-{4-[4-(trifluoromethoxy)benzyloxy]biphenyl-3-yl}propanoic acid]
21% | 46% | 95% | COc1ccccc1-c1ccc(OCc2ccc(C(C)(C)C)cc2)c(/C=C/C(=O)O)c1 [Compound 61, (E)-3-{4-[4-(tert-butyl)benzyloxy]-2′-methoxybiphenyl-3-yl}propenoic acid]
22% | 47% | 91% | COc1ccccc1-c1ccc(OCc2ccc(C(C)(C)C)cc2)c(CCC(=O)O)c1 [Compound 62, 3-{4-[4-(tert-butyl)benzyloxy]-2′-methoxybiphenyl-3-yl}propanoic acid]
